Reference: publication doi:10.1101/2025.03.19.644003v1 (biorxiv, 2025)

Tests used:
VHL/EloB/EloC (VBC) = VHL/EloB/EloC (VBC) (Homo sapiens, UniProt P40337); experiment: SPR, immobilised His-tagged VBC; assay type: binding
NanoLuc-VHL = NanoLuc-VHL (Homo sapiens, UniProt P40337); experiment: NanoBRET tracer displacement, live HEK293T cells; assay type: cell-based
[1] = molecular target: VHL:GEMIN3aa41-268 (VBC with purified GEMIN3aa41-268) (Homo sapiens, UniProt P40337+Q9UHI6); experiment: SPR, immobilised GEMIN3aa41-268, pre-formed VBC:compound complex as analyte; assay type: binding
Sequence of VHL:GEMIN3aa41-268 (VBC with purified GEMIN3aa41-268) (P40337 whole entry, the tested form may be a part): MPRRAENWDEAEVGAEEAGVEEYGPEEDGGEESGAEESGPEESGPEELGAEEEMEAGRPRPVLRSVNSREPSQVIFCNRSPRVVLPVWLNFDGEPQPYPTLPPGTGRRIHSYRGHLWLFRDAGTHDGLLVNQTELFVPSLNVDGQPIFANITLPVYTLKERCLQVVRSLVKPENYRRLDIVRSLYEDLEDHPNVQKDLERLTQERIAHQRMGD
Sequence of VHL:GEMIN3aa41-268 (VBC with purified GEMIN3aa41-268) (Q9UHI6 41-268): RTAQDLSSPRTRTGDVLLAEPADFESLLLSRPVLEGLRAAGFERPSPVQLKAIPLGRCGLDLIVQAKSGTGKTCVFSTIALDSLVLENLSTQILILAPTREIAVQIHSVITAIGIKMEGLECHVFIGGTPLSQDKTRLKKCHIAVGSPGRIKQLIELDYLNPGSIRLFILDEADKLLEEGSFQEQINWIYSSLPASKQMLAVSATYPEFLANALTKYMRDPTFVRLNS
Sequence of VHL:GEMIN3aa41-268 (VBC with purified GEMIN3aa41-268) (Q15369 whole entry, further chain, the tested form may be a part): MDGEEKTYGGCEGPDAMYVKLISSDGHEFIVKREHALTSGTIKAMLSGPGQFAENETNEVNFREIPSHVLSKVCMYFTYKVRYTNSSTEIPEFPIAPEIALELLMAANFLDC
Sequence of VHL:GEMIN3aa41-268 (VBC with purified GEMIN3aa41-268) (Q15370 whole entry, further chain, the tested form may be a part): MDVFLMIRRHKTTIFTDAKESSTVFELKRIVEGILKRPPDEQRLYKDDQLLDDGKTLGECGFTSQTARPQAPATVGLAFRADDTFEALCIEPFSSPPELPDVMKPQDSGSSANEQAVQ

Sequence of VHL/EloB/EloC (VBC) (Q15369 whole entry): as the sequence (Q15369 whole entry, further chain, the tested form may be a part) above
Sequence of VHL/EloB/EloC (VBC) (Q15370 whole entry, further chain): as the sequence (Q15370 whole entry, further chain, the tested form may be a part) above
Sequence of VHL/EloB/EloC (VBC) (P40337 whole entry): as the sequence (P40337 whole entry, the tested form may be a part) above
Sequence of NanoLuc-VHL (P40337 whole entry, the tested form may be a part): as above

SMILES	Kd (VHL/EloB/EloC (VBC)) [nM]	IC50 (NanoLuc-VHL) [nM]	Kd [1] [nM]
CC(C)(C)[C@H](NC(=O)c1cnn2c1OCCC2)C(=O)N1C[C@H](O)C[C@H]1C(=O)NCc1ccc(-c2ccc(Cl)cc2Cl)cc1 [compound 1, N-((S)-1-((2S,4R)-2-(((2’,4’-dichloro-[1,1’-biphenyl]-4-yl)methyl)carbamoyl)-4-hydroxypyrrolidin-1-yl)-3,3-dimethyl-1-oxobutan-2-yl)-6,7-dihydro-5H-pyrazolo[5,1-b] [1,3] oxazine-3-carboxamide]	217	870	69
CC(C)(C)[C@H](NC(=O)c1cnn2c1CCCC2)C(=O)N1C[C@H](O)C[C@H]1C(=O)NCc1ccc(-c2ccc(Cl)cc2Cl)cc1 [compound 3, N-((S)-1-((2S,4R)-2-(((2’,4’-dichloro-[1,1’-biphenyl]-4-yl)methyl)carbamoyl)-4-hydroxypyrrolidin-1-yl)-3,3-dimethyl-1-oxobutan-2-yl)-4,5,6,7-tetrahydropyrazolo[1,5-a]pyridine-3-carboxamide]	557	–	73
CC(C)(C)[C@H](NC(=O)c1cnn2c1OCCC2)C(=O)N1C[C@H](O)C[C@H]1C(=O)NCc1ccc(-c2ccc(Cl)cc2)cc1 [compound 4, N-((S)-1-((2S,4R)-2-(((4’-chloro-[1,1’-biphenyl]-4-yl)methyl)carbamoyl)-4-hydroxypyrrolidin-1-yl)-3,3-dimethyl-1-oxobutan-2-yl)-6,7-dihydro-5H-pyrazolo[5,1-b][1,3]oxazine-3-carboxamide]	200	–	487
CC(C)(C)[C@H](NC(=O)c1cnn2c1OCCC2)C(=O)N1C[C@H](O)C[C@H]1C(=O)NCc1ccc(-c2ccccc2Cl)cc1 [compound 5, N-((S)-1-((2S,4R)-2-(((2’-chloro-[1,1’-biphenyl]-4-yl)methyl)carbamoyl)-4-hydroxypyrrolidin-1-yl)-3,3-dimethyl-1-oxobutan-2-yl)-6,7-dihydro-5H-pyrazolo[5,1-b][1,3]oxazine-3-carboxamide]	74.3	–	–
CC(C)(C)[C@H](NC(=O)c1cnn2c1OCCC2)C(=O)N1C[C@H](O)C[C@H]1C(=O)NCc1ccc(-c2ccccc2)cc1 [compound 6, N-((S)-1-((2S,4R)-2-(([1,1’-biphenyl]-4-ylmethyl)carbamoyl)-4-hydroxypyrrolidin-1-yl)-3,3-dimethyl-1-oxobutan-2-yl)-6,7-dihydro-5H-pyrazolo[5,1-b][1,3]oxazine-3-carboxamide]	170	–	–
